We go through 66 compounds from patent US8476197B2, “Aminopropenoates as fungicides” (priority 2009, dated 2013).

Marks after values point to notes of the source that are not given here.

Usually Log P stands for the decadic logarithm of the partition coefficient of the neutral form, usually between octanol and water. A high value points to higher lipophilicity.

The conditions of the first data set: pH 2.3.
As to `CCOC(=O)C(C#N)=C(NC1CCSC1=O)c1cccnc1Cl` (racemic) [Compound 44], the lipophilicity (Log P) amounted to 2.42. On the same count and under the same terms, next, `CCOC(=O)C(C#N)=C(NC(C)c1nccs1)c1cccnc1OCC` (racemic) [Compound 148]: 2.92.

Staying with this data set, now noted: pH 2.7.
For the compound `CCOC(=O)C(C#N)=C(NC(C)C(C)OC)c1cnn(C)c1Cl` (mixture of isomers) [Compound 1543], the “Log P” value is 2.67^[a].

`CCOC(=O)C(C#N)=C(NC(C)C(C)CC)c1cnn(C)c1Cl` (mixture of isomers) [Compound 1544]: the “Log P” value was 3.6^[a]. The same measure, in the same setting: with `CCOC(=O)C(C#N)=C(NC(C)c1nc(C)c(C)s1)c1cn(C)nc1C(F)F` (racemic) [Compound 33] the figure was 2.96^[a]; with `CCOC(=O)C(C#N)=C(NC(C)c1nccs1)c1cn(C)nc1C(F)F` (racemic) [Compound 34], 2.4^[a].

Turning to `CCOC(=O)C(C#N)=C(NC(C)Cc1c[nH]c2ccccc12)c1cn(C)nc1C(F)F` (racemic) [Compound 35], the “Log P” value was 3.25^[a]. `CCOC(=O)C(C#N)=C(NC(C)c1ccccn1)c1cn(C)nc1C(F)F` (racemic) [Compound 36]: the “Log P” value is 2.33^[a]. Same read-out and setting: with `CCOC(=O)C(C#N)=C(NC(C)c1nc(C)c(C)s1)c1ncc(C(F)(F)F)cc1Cl` (racemic) [Compound 37] the figure was 4.04^[a]; with `CCOC(=O)C(C#N)=C(NC(C)c1nccs1)c1c(C)nn(C)c1F` (racemic) [Compound 38], 2.37^[a]; with `CCOC(=O)C(C#N)=C(NC(C)Cc1c[nH]c2ccccc12)c1ncc(C(F)(F)F)cc1Cl` (racemic) [Compound 41], 4.07^[a].

In the case of `CCOC(=O)C(C#N)=C(NC(C)c1ccccn1)c1ncc(C(F)(F)F)cc1Cl` (racemic) [Compound 43], the “Log P” value is 3.44^[a]. Same read-out and setting: next, `CCOC(=O)C(C#N)=C(NC(C)c1nc(C)c(C)s1)c1c(C)nn(C)c1F` (racemic) [Compound 45]: 2.94^[a]. On the same count and under the same terms, next, `CCOC(=O)C(C#N)=C(NC(C)Cc1c[nH]c2ccccc12)c1c(C)nn(C)c1F` (racemic) [Compound 46]: 3.07^[a]; `COC(=O)C(C#N)=C(NC(C)c1nc(C)c(C)s1)c1cn(C)nc1C(F)F` (racemic) [Compound 47]: 2.65^[a]. As to `CCOC(=O)C(C#N)=C(NC(c1cc2ccccc2s1)C(F)(F)F)c1cn(C)nc1C(F)F` (racemic) [Compound 48], the “Log P” value is 4.1^[a]. Same read-out and setting: next, `CCOC(=O)C(C#N)=C(NC(C)c1ccccn1)c1c(C)nn(C)c1F` (racemic) [Compound 50]: 2.28^[a]; `CCOC(=O)C(C#N)=C(NC(c1cc2ccccc2s1)C(F)(F)F)c1c(C)nn(C)c1F` (racemic) [Compound 51]: 4.25^[a]; `CCOC(=O)C(C#N)=C(NC(C)c1nc(C)c(C)s1)c1nsc(Cl)c1Cl` (racemic) [Compound 53]: 4.01^[a].

With `CCOC(=O)C(C#N)=C(NC(C)Cc1c[nH]c2ccccc12)c1nsc(Cl)c1Cl` (racemic) [Compound 54], the “Log P” value is 4.1^[a]. Same read-out and setting: with `CCOC(=O)C(C#N)=C(NC(C)c1nccs1)c1nsc(Cl)c1Cl` (racemic) [Compound 55] the figure was 3.29^[a]. The same measure, in the same setting: with `COC(=O)C(C#N)=C(NC(C)Cc1c[nH]c2ccccc12)c1cn(C)nc1C(F)F` (racemic) [Compound 57] the figure was 3^[a]; with `COC(=O)C(C#N)=C(NC(C)c1ccccn1)c1cn(C)nc1C(F)F` (racemic) [Compound 59], 2.05^[a]; with `COC(=O)C(C#N)=C(NC(c1cc2ccccc2s1)C(F)(F)F)c1cn(C)nc1C(F)F` (racemic) [Compound 60], 3.83^[a]. Still for that read-out and setting: next, `COC(=O)C(C#N)=C(NC(C)c1nccs1)c1cn(C)nc1C(F)F` (racemic) [Compound 61]: 2.13^[a]; `CCOC(=O)C(C#N)=C(NC(C)c1nccs1)c1cn(C)nc1C(F)(F)F` (racemic) [Compound 63]: 2.78^[a]. In the case of `CCOC(=O)C(C#N)=C(NC(c1cc2ccccc2s1)C(F)(F)F)c1sccc1Br` (racemic) [Compound 129], the “Log P” value was 4.9^[a].

Turning to `CCOC(=O)C(C#N)=C(NC(c1cc2ccccc2s1)C(F)(F)F)c1ccsc1Br` (racemic) [Compound 130], the “Log P” value is 4.87^[a]. The same measure, in the same setting: next, `COC(=O)C(C#N)=C(NC(C)c1nc(C)c(C)s1)c1sc(C)nc1C(F)(F)F` (racemic) [Compound 131]: 3.46^[a]; `COC(=O)C(C#N)=C(NC(C)Cc1c[nH]c2ccccc12)c1sc(C)nc1C(F)(F)F` (racemic) [Compound 133]: 3.6^[a]; `COC(=O)C(C#N)=C(NC(C)c1ccccn1)c1sc(C)nc1C(F)(F)F` (racemic) [Compound 135]: 2.77^[a]. Take `CCOC(=O)C(C#N)=C(NC(C)c1ccccn1)c1c(C)nn(C)c1Cl` (racemic) [Compound 136]: the lipophilicity (Log P) was 2.49^[a].

Turning to `CCOC(=O)C(C#N)=C(NC(c1cc2ccccc2s1)C(F)(F)F)c1c(C)nn(C)c1Cl` (racemic) [Compound 137], the “Log P” value was 4.46^[a]. Same read-out and setting: next, `CCOC(=O)C(C#N)=C(NC(C)c1ccccn1)c1cn(C)nc1C(F)(F)F` (racemic) [Compound 140]: 2.75^[a]; `CCOC(=O)C(C#N)=C(NC(C)c1nccs1)c1sc(C)nc1C(F)(F)F` (racemic) [Compound 142]: 3.13^[a]; `CCOC(=O)C(C#N)=C(NC(C)c1nc(C)c(C)s1)c1sc(C)nc1C(F)(F)F` (racemic) [Compound 143]: 3.83^[a]. Same read-out and setting: with `CCOC(=O)C(C#N)=C(NC(C)Cc1cc2ccccc2[nH]1)c1sc(C)nc1C(F)(F)F` (racemic) [Compound 145] the figure was 3.85^[a]. On the same count and under the same terms, with `CCOC(=O)C(C#N)=C(NC(C)c1ccccn1)c1sc(C)nc1C(F)(F)F` (racemic) [Compound 146] the figure was 3.12^[a].

With `CCOC(=O)C(C#N)=C(NC(c1cc2ccccc2s1)C(F)(F)F)c1cn(C)nc1C(F)(F)F` (racemic) [Compound 147], the “Log P” value was 4.46^[a]. For `CCOC(=O)C(C#N)=C(NC(C)c1ccccn1)c1c(C(F)F)nn(C)c1Cl` (racemic) [Compound 156], the “Log P” value was 2.81^[a]. For `CCOC(=O)C(C#N)=C(NC(C)c1nc(C)c(C)s1)c1ccsc1I` (racemic) [Compound 157], the “Log P” value is 3.75^[a].

Turning to `CCOC(=O)C(C#N)=C(NC(C)c1nccs1)c1ccsc1I` (racemic) [Compound 158], the lipophilicity (Log P) was 3.08^[a]. Same read-out and setting: next, `CCOC(=O)C(C#N)=C(NC(C)c1ccccn1)c1sccc1Cl` (racemic) [Compound 160]: 3.05^[a].

For the compound `CCOC(=O)C(C#N)=C(NC(c1cc2ccccc2s1)C(F)(F)F)c1sccc1Cl` (racemic) [Compound 162], the “Log P” value is 4.89^[a]. Same read-out and setting: next, `CCOC(=O)C(C#N)=C(NC(C)c1ccccn1)c1ccsc1I` (racemic) [Compound 163]: 3.03^[a]. Consider `CCOC(=O)C(C#N)=C(NC(C)Cc1c[nH]c2ccccc12)c1ccsc1I` (racemic) [Compound 164], for which the log partition coefficient (Log P) is 3.8^[a]. On the same count and under the same terms, next, `CCOC(=O)C(C#N)=C(NC(c1cc2ccccc2s1)C(F)(F)F)c1ccsc1I` (racemic) [Compound 165]: 4.81^[a]; `CCOC(=O)C(C#N)=C(NC(C)c1ncc(C)s1)c1sccc1Br` (racemic) [Compound 169]: 3.46^[a]. Same read-out and setting: with `CCOC(=O)C(C#N)=C(NC(C)c1nc(C)cs1)c1sccc1C(F)(F)F` (racemic) [Compound 174] the figure was 3.58^[a]; with `COC(=O)C(C#N)=C(NC(C)c1sc(C)nc1C)c1sc(C)nc1C(F)(F)F` (racemic) [Compound 179], 2.8^[a].

Turning to `COC(=O)C(C#N)=C(NC(C)c1nc(C)cs1)c1sc(C)nc1C(F)(F)F` (racemic) [Compound 180], the log partition coefficient (Log P) is 3.04^[a].

Consider `COC(=O)C(C#N)=C(NC(C)c1ncc(C)s1)c1sc(C)nc1C(F)(F)F` (racemic) [Compound 182], for which the “Log P” value was 3.09^[a]. Regarding `CCOC(=O)C(C#N)=C(NC(C)c1sc(C)nc1C)c1cn(C)nc1C(F)F` (racemic) [Compound 187], the “Log P” value is 2.43^[a]. Same read-out and setting: with `CCOC(=O)C(C#N)=C(NC(C)c1nccs1)c1cc(Cl)sc1Cl` (racemic) [Compound 221] the figure was 3.65^[a]; with `CCOC(=O)C(C#N)=C(NC(C)c1ccccn1)c1cc(Cl)sc1Cl` (racemic) [Compound 222], 2.41^[a]; with `CCOC(=O)C(C#N)=C(NC(C)c1nccs1)c1cnc(Cl)cc1Cl` (racemic) [Compound 223], 3^[a]. On to `CCOC(=O)C(C#N)=C(NC(C)c1nccs1)c1ncccc1Br` (racemic) [Compound 224], for which the “Log P” value was 2.53^[a]. With `CCOC(=O)C(C#N)=C(NC(C)c1nccs1)c1ncc(Cl)cc1Cl` (racemic) [Compound 225], the lipophilicity (Log P) is 3.11^[a]. The same measure, in the same setting: next, `CCOC(=O)C(C#N)=C(NC(C)c1nccs1)c1cn(C)nc1OC` (racemic) [Compound 229]: 2.26^[a]; `CCOC(=O)C(C#N)=C(NC(C)c1nccs1)c1cccnc1C(F)(F)F` (racemic) [Compound 232]: 2.9^[a]. Still for that read-out and setting: with `CCOC(=O)C(C#N)=C(NC(C)c1ccccn1)c1cccnc1C(F)(F)F` (racemic) [Compound 233] the figure was 2.88^[a].

Staying with this data set, now noted: pH 7.5.
As for `CCOC(=O)C(C#N)=C(NC(C)CCCC(C)C)c1cccnc1Cl` (mixture of isomers) [Compound 1582], the “Log P” value turned out to be 4.47. The same measure, in the same setting: next, `CCOC(=O)C(C#N)=C(NC1CCSC1=O)c1cccnc1Cl` (racemic) [Compound 44]: 2.23; `CCOC(=O)C(C#N)=C(NC(C)Cc1ncc(C(F)(F)F)cc1Cl)c1cccnc1Cl` (racemic) [Compound 49]: 3.76; `CCOC(=O)C(C#N)=C(NC(C)c1ncc(Br)s1)c1cccnc1Cl` (racemic) [Compound 128]: 3.32.

`CCOC(=O)C(C#N)=C(NC(C)c1nccs1)c1cccnc1OCC` (racemic) [Compound 148]: the “Log P” value stood at 2.89. Same read-out and setting: with `CCOC(=O)C(C#N)=C(NC(C)c1nccs1)c1cccnc1C` (racemic) [Compound 152] the figure was 2.17; with `CCOC(=O)C(C#N)=C(NC1CCOC1=O)c1cccnc1Cl` (racemic) [Compound 231], 1.77.
